How the values were obtained:
AChE [1] = biological target: T1, AChE (Electrophorus electricus, UniProt O42275); assay: Kinetic study of AChE inhibition (Lineweaver-Burk, secondary plot); type: biochemical
T1 construct: AChE (200 U/g from electric eel); purchased Macklin Inc. (Shanghai, China)
Experimental: (§1) To clarify the mechanism of action of aaptamine, reciprocal plots of 1/[velocity] vs. 1/[substrate] (Lineweaver-Burk plots) were constructed at different concentrations of the substrate ATChI or BTChI (0, 1.25, 2.5, 5, 10 and 25 mM) and aaptamine (0, 5, 20 and 40 μM). Meanwhile, the parallel experiment was also carried out without aaptamine. The remaining procedure was the same as that of described in cholinesterases inhibition assay. The data were plotted on a Lineweaver–Burk diagram using Microsoft Excel 2016 to reveal the mechanism of inhibition. The steady-state inhibition constant Ki (intercept on the x-axis) was determined by the secondary plot of slope vs. the concentrations of inhibitor.

[2] = test system: AlCl3-induced zebrafish AD model; assay: AlCl3-induced zebrafish AD model, behaviour assay; type: in vivo; conditions: + 100 μM AlCl3, 3 d; for speed change after light stimulus: model 1.38 mm/s, control 2.56 mm/s; for movement distance during 60 min: model 4968 mm, control 9219 mm
Experimental: Briefly, the 3–6 dpf zebrafish larvae were randomly placed in a 6-well microplate at a density of 30 zebrafish per well and treated with 100 μM AlCl3 to establish the AD model. […] The control group was maintained in the reverse osmosis water with 0.5% DMSO while the model group was treated with 100 μM AlCl3 containing 0.5% DMSO. […] After 3 d, the distance and speed change after light stimulus alteration were analysed and recorded for three rhythmic light within 60 min (10 min darkness and 10 min illumination alternately) using viewpoint behaviour analyser (Zebralab V3, ViewPoint Life Sciences Co., Ltd., Lyons, France). The protocol for this study involving animals and their maintenance was approved by the Animal Care and Use Committee of Shandong Academy of Sciences (No.00612). Efficacy on motility (%)=[Dsample group−Dmodel group]/[Duntreated group−Dmodel group]×100.
D is the movement distance of zebrafish during 60 min.
Efficacy on speed change (%) = [Vsample group – Vmodel group]/[Vuntreated group – Vmodel group] × 100. V is the average velocity (mm/s) of different groups which was obtained by recording the movement distance of every min for every zebrafish during 60 min. All data are expressed as mean ± SEM and analysed by GraphPad Prism version 7.0 software (Graphpad Software Inc., La Jolla, CA). Differences between groups were examined for statistical significance using one‐way ANOVA with Tukey’s post hoc test.

[3] = test system: nicotinic acetylcholine receptors (nAChRs); conditions: ref Kudryavtsev et al. [2014]; cited from earlier work
BuChE [4] = biological target: T2, BuChE (Equus caballus, UniProt P81908); assay: Surface plasmon resonance (SPR) assay, BuChE; type: binding; conditions: Biacore T100, steady-state affinity fitting; read-out: Kd (equilibrium dissociation constant) for BuChE
T2 construct: BuChE (10 U/mg from horse serum); purchased Shanghai Yuanye Bio-Technology (Shanghai, China); host or cells: horse serum
T2 sequence (P81908 whole entry): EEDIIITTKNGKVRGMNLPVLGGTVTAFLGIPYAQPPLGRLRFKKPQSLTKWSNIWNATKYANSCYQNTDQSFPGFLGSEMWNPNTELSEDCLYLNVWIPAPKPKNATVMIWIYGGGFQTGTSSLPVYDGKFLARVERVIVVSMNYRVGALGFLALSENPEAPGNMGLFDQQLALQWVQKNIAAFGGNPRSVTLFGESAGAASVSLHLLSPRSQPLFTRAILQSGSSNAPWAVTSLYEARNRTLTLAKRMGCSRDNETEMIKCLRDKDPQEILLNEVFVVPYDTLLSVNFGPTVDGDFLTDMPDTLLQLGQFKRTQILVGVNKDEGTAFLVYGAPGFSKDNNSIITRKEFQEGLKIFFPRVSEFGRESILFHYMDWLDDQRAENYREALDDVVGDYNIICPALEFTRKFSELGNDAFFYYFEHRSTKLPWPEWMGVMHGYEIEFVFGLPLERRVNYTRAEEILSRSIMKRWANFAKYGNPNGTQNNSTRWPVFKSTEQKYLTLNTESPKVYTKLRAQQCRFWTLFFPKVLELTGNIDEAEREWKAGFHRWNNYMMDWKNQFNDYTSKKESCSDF
Experimental: (§2) The experiments were carried out using Biacore T100 with the Sensor Chip CM5. The chip surface was activated following standard NHS + EDC with Biacore PBS-EP (0.02 M Phosphate buffer with 2.7 mM KCl, 0.137 M NaCl and 0.05% P20) buffer used as the running buffer. 7000 RU of untagged AChE or 6600 RU of untagged BuChE was immobilized per flow cell and 100 μg/mL AChE or 20 μg/mL BuChE was injected. The cholinesterase protein is coupled to the sensor chip CM5 by amine coupling. 1 M (pH 8.5) ethanolamine-HCl was used to seal off the active group. Aaptamine was injected into the protein channel and blank channel at the following doses: 100, 50, 25, 12.5, 6.25, 3.125 and 0.39 μM at a flow rate of 30 μL/min. The protein binding period was set to 1 min, and the dissociation period was set to 2 min. The affinity was obtained by fitting the binding data using Biacore T100 Evaluation Software version 3.0 (Chicago, USA).

[5] = test system: nicotinic acetylcholine receptors (nAChRs); conditions: ref Kudryavtsev et al. [2014]; cited from earlier work; remark: listed apart in the source
BuChE [6] = biological target: T2, BuChE; assay: Kinetic study of BuChE inhibition (Lineweaver-Burk, secondary plot); type: biochemical
Experimental: as §1

AChE [7] = biological target: T1, AChE; assay: biochemical; conditions: substrate ATChI, 37 °C; read-out: IC50 against AChE
Experimental: (§3) AChE (200 U/g from electric eel) and 5,5′-dithiobis(2-nitrobenzoic acid) (DNTB) were purchased from Macklin Inc. (Shanghai, China). BuChE (10 U/mg from horse serum), acetylthiocholine iodide (ATChI) and butyrylthiocholine iodide (BTChI) were purchased from Shanghai Yuanye Bio-Technology (Shanghai, China).
(§4) The lyophilized powder of AChE and BuChE was dissolved in protein stabilizer (0.1 g BSA dissolved in 100 mL PBS) to form the storage concentration of 10 U/mL and then diluted to the required concentrations. […] After 30 min of incubation at 37 °C, 10 μL of substrate ATChI or BTChI (10 mM) were added and incubated at 37 °C for 30 min. […] For the blank control group, the assays were carried out with wells containing all components except AChE and BuChE. […] All experiments were performed in triplicate.

BuChE [8] = biological target: T2, BuChE; assay: biochemical; conditions: substrate BTChI, 37 °C; read-out: IC50 against BuChE
Experimental: as §3, §4

AChE [9] = biological target: T1, AChE; assay: Surface plasmon resonance (SPR) assay, AChE; type: binding; conditions: Biacore T100, steady-state affinity fitting; read-out: Kd (equilibrium dissociation constant) for AChE
Experimental: as §2

AChE [10] = conditions: ref Moodie et al. [2019]; read-out: IC50 against AChE (literature); cited from earlier work
BuChE [11] = conditions: ref Moodie et al. [2019]; read-out: IC50 against BuChE (literature); cited from earlier work

T1 sequence (O42275 24-633): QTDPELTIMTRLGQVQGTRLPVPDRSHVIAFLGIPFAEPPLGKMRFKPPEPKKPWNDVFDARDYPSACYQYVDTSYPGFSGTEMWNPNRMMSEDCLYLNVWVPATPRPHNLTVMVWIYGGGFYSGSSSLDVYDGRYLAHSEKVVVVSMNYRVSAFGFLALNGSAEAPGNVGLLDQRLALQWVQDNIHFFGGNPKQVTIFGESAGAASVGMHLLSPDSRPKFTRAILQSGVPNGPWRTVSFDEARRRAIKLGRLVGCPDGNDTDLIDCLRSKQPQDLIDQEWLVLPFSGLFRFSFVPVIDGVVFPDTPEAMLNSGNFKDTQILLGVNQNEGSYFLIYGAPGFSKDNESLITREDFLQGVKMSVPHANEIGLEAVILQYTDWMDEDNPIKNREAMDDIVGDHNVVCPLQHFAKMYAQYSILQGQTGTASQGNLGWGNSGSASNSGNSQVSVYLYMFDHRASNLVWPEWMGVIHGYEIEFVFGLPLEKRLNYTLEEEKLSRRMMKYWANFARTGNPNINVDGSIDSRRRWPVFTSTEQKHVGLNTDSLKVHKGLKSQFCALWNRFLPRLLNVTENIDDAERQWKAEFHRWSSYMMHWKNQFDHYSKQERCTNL

COc1cc2ccnc3c2c(c1OC)NC=C3 [aaptamine]
inhibition type towards AChE (AChE [1]; Lineweaver-Burk plots): mixed-type inhibition
Ki (AChE [1]; secondary plot of slope vs inhibitor concentration, substrate ATChI, read-out: steady-state inhibition constant Ki against AChE): 6.96 ± 0.04 µM
dyskinesia recovery rate ([2]; 5 μM): 34.8%
efficacy on speed change ([2]; 5 μM): 34.7%
speed change after light stimulus ([2]; 5 μM): 1.79 mm/s
movement distance during 60 min ([2]; 5 μM): 6447 mm
dyskinesia recovery rate ([2]; 10 μM): 58.8%
efficacy on speed change ([2]; 10 μM): 58.5%
speed change after light stimulus ([2]; 10 μM): 2.07 mm/s
movement distance during 60 min ([2]; 10 μM): 7466 mm
dyskinesia recovery rate ([2]; 20 μM): 60.0%
efficacy on speed change ([2]; 20 μM): 60.2%
speed change after light stimulus ([2]; 20 μM): 2.09 mm/s
movement distance during 60 min ([2]; 20 μM): 7517 mm
inhibitory effect on nAChRs of Torpedo californica [3]: weak inhibitory effect
Kd (BuChE [4]): 10.7 µM
inhibitory effect on nAChRs of humans [5]: weak inhibitory effect
inhibition type towards BuChE (BuChE [6]; Lineweaver-Burk plots): mixed-type inhibition
Ki (BuChE [6]; secondary plot of slope vs inhibitor concentration, substrate BTChI, read-out: steady-state inhibition constant Ki against BuChE): 6.35 ± 0.02 µM
IC50 (AChE [7]): 16 µM
IC50 (BuChE [8]): 4.6 µM
Kd (AChE [9]): 87.6 µM

COc1cc2c(cc1OC)C(=O)C(CC1CCN(Cc3ccccc3)CC1)C2 (centres unmarked) [donepezil, reference compound]
dyskinesia recovery rate ([2]; 8 μM): 63.7%
efficacy on speed change ([2]; 8.0 μM): 63.6%
speed change after light stimulus ([2]; 8.0 μM): 2.13 mm/s
movement distance during 60 min ([2]; 8 μM): 7675 mm

CCN(C)C(=O)Oc1cccc([C@H](C)N(C)C)c1 [rivastigmine]
IC50 (AChE [10]): […]
IC50 (BuChE [11]): […]

Reference: publication PMC9380430, “Aaptamine – a dual acetyl – and butyrylcholinesterase inhibitor as potential anti-Alzheimer’s disease agent” (Pharmaceutical Biology, 2022)
